Measurements: patent US20260072046A1 (priority 2015, published 2026)
Read-outs that look alike come from different tables or passages of the source.

What was measured:
[1] = human; for concentration detected in the sublingual region (oral fluid) / concentration detected in the submandibular gland (oral fluid): female
[2] = LC-MS/MS quantification of drugs in oral fluid of live and post-mortem dogs; conditions: for detected and quantified in the sublingual region (oral fluid): Example 4, post-mortem dog, sublingual area
[3] = LC-MS/MS quantification of drugs in muscle tissue fluid from remains of a post-mortem individual
[4] = LC/MS/MS of muscle tissue homogenate (conventional method); conditions: Example 5, remains of decedent; homogenate muscle tissue:plasma 1:4
[5] = PM50019 001a, liquid leaked from container
[6] = PM50019 001b, fluid expelled by pressing muscle tissue
[7] = post-mortem dog SF10049, FIG. 28

SMILES: COc1ccc2c3c1O[C@H]1C(=O)CC[C@@]4(O)[C@@H](C2)N(C)CC[C@]314 [oxycodone]
- concentration in oral fluid [1]: 5.53 ng/mL

SMILES: CN[C@@H](C)Cc1ccccc1 [methamphetamine]
- concentration in oral fluid ([2]; live dog SF10048, FIG. 27): 16.20 ng/mL
- concentration from the muscle tissue sample (muscle tissue fluid) [3, 5]: 113.1 ng/mL
- concentration from the muscle tissue sample (muscle tissue fluid) [3, 6]: 46.1 ng/mL
- concentration from the muscle tissue homogenate [4]: 448+63 ng/g

SMILES: COc1ccc2c3c1O[C@H]1[C@@H](O)C=C[C@H]4[C@@H](C2)N(C)CC[C@@]341 [codeine]
- concentration detected in the sublingual region (oral fluid) [1]: 5.64 ng/mL
- concentration detected in the submandibular gland (oral fluid) [1]: 0.0 ng/mL
- concentration in oral fluid [1]: 4.63 ng/mL

SMILES: CCCC(C)(COC(N)=O)COC(=O)NC(C)C (stereo not shown) [carisoprodol]
- concentration detected in the sublingual region (oral fluid) [1]: 49.20 ng/mL
- concentration detected in the submandibular gland (oral fluid) [1]: 54.38 ng/mL

SMILES: COc1cccc(C2(O)CCCCC2CN(C)C)c1 (stereo not shown) [tramadol]
- detected and quantified in the sublingual region (oral fluid) [2]: 49.70 ng/mL
- concentration in oral fluid [2, 7]: 49.70 ng/mL

SMILES: CC(N)Cc1ccccc1 (stereo not shown) [amphetamine]
- concentration from the muscle tissue sample (muscle tissue fluid) [3, 5]: 10.4 ng/mL
- concentration from the muscle tissue sample (muscle tissue fluid) [3, 6]: 5.7 ng/mL
- concentration from the muscle tissue homogenate [4]: < 100 ng/g

SMILES: O=C1CN=C(c2ccccc2Cl)c2cc([N+](=O)[O-])ccc2N1 [clonazepam]
- concentration in oral fluid [1]: 0.34 ng/mL

SMILES: NCC1(CC(=O)O)CCCCC1 [gabapentin]
- detected and quantified in the sublingual region (oral fluid) [2]: 205.00 ng/mL
- concentration in oral fluid [2, 7]: 205.00 ng/mL

SMILES: CNC1(c2ccccc2Cl)CCCCC1=O (stereo not shown) [ketamine]
- detected and quantified in the sublingual region (oral fluid) [2]: 408.30 ng/mL
- concentration in oral fluid ([2]; live dog SF10085, FIG. 21): 598.30 ng/mL
- concentration in oral fluid ([2]; live dog SF10086, FIG. 22): 592.10 ng/mL
- concentration in oral fluid ([2]; live dog SF10087, FIG. 23): 1914.90 ng/mL
- concentration in oral fluid ([2]; live dog SF10088, FIG. 24): 426.20 ng/mL
- concentration in oral fluid ([2]; live dog SF10092, FIG. 25): 844.20 ng/mL
- concentration in oral fluid [2, 7]: 408.30 ng/mL
- concentration in oral fluid ([2]; post-mortem dog SF10093, FIG. 26): 229.50 ng/mL

SMILES: CC(=O)Nc1ccc(O)cc1 [acetaminophen]
- detected and quantified in the sublingual region (oral fluid) [2]: 12.20 ng/mL
- concentration in oral fluid [2, 7]: 12.20 ng/mL

SMILES: CN(C)CCC=C1c2ccccc2C=Cc2ccccc21 [cyclobenzaprine]
- concentration in oral fluid [1]: 4.74 ng/mL

SMILES: CN1CC[C@]23c4c5ccc(O)c4O[C@H]2[C@@H](O)C=C[C@H]3[C@H]1C5 [morphine]
- concentration detected in the sublingual region (oral fluid) [1]: 197.42 ng/mL
- concentration detected in the submandibular gland (oral fluid) [1]: 12.34 ng/mL
